Source: patent US8563576B2 (Vertex Pharmaceuticals Incorporated, priority 2008, dated 2013)

Assays:
Assay type in all cases: biochemical
PKC theta kinase = PKC theta kinase (Homo sapiens, UniProt Q04759); test: PKC theta kinase coupled-enzyme (NADH consumption) Ki assay; conditions: 240 μM ATP, 18 nM PKC theta kinase, 30° C.
Method: (§1) l An assay buffer solution was prepared which consisted of 100 mM HEPES (pH 7.5), 10 mM MgCl2, 25 mM NaCl, 0.1 mM EDTA and 0.01% Brij. […] To 60 μL of this enzyme buffer, in a 384 well plate, was added 2 μL of VRT stock solution in DMSO. The mixture was allowed to equilibrate for 10 mins at 30° C. The enzyme reaction was initiated by the addition of 5 μL stock ATP solution prepared in assay buffer to a final assay concentration of 240 μM. Initial rate data was determined from the rate of change of absorbance at 340 nm (corresponding to stoichiometric consumption of NADH) using a Molecular Devices Spectramax plate reader (Sunnyvale, Calif.) over 15 mins at 30° C. […] Ki values were calculated from initial rate data by non-linear regression using the Prism software package (Prism 4.0a, Graphpad Software, San Diego, Calif.).

PKC delta kinase = PKC delta kinase (Homo sapiens, UniProt Q05655); test: PKC delta kinase coupled-enzyme (NADH consumption) Ki assay; conditions: 150 μM ATP, 46 nM PKC delta kinase, 30° C.
Method: as §1, with “An” for “l An”, “To 16” for “To 60”, “added 1” for “added 2”, “of 16” for “of 5”, “of 150” for “of 240”

PKC alpha kinase = PKC alpha kinase (Homo sapiens, UniProt P17252); test: PKC alpha kinase coupled-enzyme (NADH consumption) Ki assay; conditions: 130 μM ATP, 4.5 nM PKC alpha kinase, 30° C.
Method: as §1, with “An” for “l An”, “mM EDTA, 100 μM CaCl2” for “mM EDTA”, “To 16” for “To 60”, “added 1” for “added 2”, “of 16” for “of 5”, “of 130” for “of 240”

PKC theta kinase, sequence (Q04759 whole entry): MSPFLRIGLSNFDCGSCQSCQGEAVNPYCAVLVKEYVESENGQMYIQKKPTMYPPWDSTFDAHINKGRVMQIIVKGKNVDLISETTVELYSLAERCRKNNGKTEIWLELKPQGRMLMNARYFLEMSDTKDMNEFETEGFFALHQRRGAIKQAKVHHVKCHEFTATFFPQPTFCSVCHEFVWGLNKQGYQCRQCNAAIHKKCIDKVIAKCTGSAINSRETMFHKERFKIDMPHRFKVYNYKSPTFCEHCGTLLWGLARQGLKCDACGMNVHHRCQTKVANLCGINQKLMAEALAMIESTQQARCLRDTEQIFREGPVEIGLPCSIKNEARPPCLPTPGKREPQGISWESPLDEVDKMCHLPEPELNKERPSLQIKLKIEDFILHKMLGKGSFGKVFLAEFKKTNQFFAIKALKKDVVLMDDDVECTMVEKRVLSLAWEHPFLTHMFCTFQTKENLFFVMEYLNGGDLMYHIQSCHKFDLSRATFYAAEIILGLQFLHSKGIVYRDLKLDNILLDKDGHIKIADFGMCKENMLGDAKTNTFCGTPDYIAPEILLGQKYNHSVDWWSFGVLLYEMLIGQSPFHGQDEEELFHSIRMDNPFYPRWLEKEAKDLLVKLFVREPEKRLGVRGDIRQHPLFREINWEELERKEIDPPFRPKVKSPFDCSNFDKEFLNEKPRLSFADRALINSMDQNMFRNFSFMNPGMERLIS
PKC delta kinase, sequence (Q05655 whole entry): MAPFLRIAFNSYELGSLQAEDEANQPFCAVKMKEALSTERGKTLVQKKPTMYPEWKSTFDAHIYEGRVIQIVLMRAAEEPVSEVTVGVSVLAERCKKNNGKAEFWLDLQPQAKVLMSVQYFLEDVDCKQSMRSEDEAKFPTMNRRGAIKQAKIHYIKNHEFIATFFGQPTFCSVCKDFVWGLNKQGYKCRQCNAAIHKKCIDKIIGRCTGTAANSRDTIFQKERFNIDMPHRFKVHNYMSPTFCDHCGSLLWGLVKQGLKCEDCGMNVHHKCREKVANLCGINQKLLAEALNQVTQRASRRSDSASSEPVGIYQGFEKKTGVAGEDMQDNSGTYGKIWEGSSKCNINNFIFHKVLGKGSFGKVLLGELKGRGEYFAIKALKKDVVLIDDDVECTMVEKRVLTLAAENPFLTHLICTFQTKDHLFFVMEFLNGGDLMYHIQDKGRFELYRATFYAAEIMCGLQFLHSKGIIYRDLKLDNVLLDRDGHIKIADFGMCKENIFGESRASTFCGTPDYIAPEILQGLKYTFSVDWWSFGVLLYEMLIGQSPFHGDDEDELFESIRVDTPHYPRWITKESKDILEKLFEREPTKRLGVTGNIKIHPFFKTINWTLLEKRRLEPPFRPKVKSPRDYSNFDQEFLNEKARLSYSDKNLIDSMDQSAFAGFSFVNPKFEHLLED

Row | Ki (PKC theta kinase) | Ki (PKC delta kinase) | Ki (PKC alpha kinase) | Structure (SMILES)
1 | > 700 nM | > 2000 nM | > 1250 nM | CC(C)C[C@H]1CN(c2cn(C)c(-c3n[nH]c4ncccc34)n2)CCN1 [Compound 6, 3-(4-((S)-3-isobutylpiperazin-1-yl)-1-methyl-1H-imidazol-2-yl)-1H-pyrazolo[3,4-b]pyridine]
2 | < 500 nM | < 2800 nM | > 1250 nM | c1cnc2[nH]nc(-c3nn(C4CCNCC4)c4ccccc34)c2c1 [Compound 4, 3-(1-(piperidin-4-yl)-1H-indazol-3-yl)-1H-pyrazolo[3,4-b]pyridine]
3 | > 700 nM | > 2000 nM | > 1250 nM | Cc1cn(C2CCNCC2)nc1-c1n[nH]c2ncccc12 [Compound 5, 3-(4-methyl-1-(piperidin-4-yl)-1H-pyrazol-3-yl)-1H-pyrazolo[3,4-b]pyridine]
4 | < 500 nM | > 2000 nM | > 1250 nM | Cc1sc(N2CCN[C@@H](CC(C)C)C2)nc1-c1n[nH]c2ncccc12 [Compound 2]
5 | < 50 nM | < 2800 nM | > 1250 nM | CC(C)C[C@H]1CN(c2csc(-c3n[nH]c4ncccc34)n2)CCN1 [Compound 3, (S)-4-(3-isobutylpiperazin-1-yl)-2-(1H-pyrazolo[3,4-b]pyridin-3-yl)thiazole]
6 | > 2800 nM |  |  | Cc1sc(N2CCCNCC2)nc1-c1n[nH]c2ncccc12 [Compound 1]
